The source of these data is patent US20260376293A1, “METHODS FOR STUDYING GPR158 PHARMACOLOGY AND IDENTIFICATION OF ITS LIGANDS” (UNIVERSITY OF FLORIDA RESEARCH FOUNDATION, INCORPORATED, priority 2022, published 2026).

The target in the test is T1, GPR158 E271A mutant (Homo sapiens, UniProt Q5T848, E271A).
T1 construct: glycine site in Cache domain
T1 sequence (Q5T848 24-1215 E271A): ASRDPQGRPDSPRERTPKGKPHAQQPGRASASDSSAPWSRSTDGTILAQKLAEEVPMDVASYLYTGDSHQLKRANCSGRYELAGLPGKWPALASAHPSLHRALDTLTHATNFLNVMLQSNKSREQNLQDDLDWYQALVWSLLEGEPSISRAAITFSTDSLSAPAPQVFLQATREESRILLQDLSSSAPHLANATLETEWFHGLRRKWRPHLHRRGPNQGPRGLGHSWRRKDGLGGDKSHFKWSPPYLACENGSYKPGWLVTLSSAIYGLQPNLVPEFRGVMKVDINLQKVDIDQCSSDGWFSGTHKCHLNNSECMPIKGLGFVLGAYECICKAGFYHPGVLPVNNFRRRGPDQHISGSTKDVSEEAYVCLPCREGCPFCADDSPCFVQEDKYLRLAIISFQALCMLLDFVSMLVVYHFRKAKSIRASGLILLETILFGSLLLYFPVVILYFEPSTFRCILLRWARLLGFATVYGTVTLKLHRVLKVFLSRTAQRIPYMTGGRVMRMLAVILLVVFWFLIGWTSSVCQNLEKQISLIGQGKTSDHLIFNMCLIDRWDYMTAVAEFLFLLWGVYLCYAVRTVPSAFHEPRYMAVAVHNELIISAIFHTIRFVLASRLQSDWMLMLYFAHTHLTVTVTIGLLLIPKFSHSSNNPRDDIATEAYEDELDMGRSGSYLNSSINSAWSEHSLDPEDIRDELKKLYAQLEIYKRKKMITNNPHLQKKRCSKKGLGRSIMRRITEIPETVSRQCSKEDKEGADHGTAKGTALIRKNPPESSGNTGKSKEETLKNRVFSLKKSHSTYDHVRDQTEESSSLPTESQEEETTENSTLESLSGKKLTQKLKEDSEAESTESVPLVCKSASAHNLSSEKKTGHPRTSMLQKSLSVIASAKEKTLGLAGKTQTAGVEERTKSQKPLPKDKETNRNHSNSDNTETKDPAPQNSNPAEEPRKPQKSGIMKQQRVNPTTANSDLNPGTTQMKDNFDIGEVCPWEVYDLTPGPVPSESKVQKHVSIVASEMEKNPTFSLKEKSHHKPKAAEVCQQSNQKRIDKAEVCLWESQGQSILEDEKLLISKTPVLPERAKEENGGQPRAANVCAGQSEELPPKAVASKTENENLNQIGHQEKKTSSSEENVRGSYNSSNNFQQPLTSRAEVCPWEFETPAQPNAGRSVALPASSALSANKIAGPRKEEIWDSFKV
Briefly: Radioligand binding assay on GPR158 mutant E271A. The source says: FIGS. 11A-11G. Probing Cache domain of GPR158 as a ligand binding site A) Computational docking of glycine into putative ligand binding pocket on GPR158 Cache domain. Glycine and directly interacting residues are shown as sticks. Hydrogen bonds and van der Waals interactions are shown as dotted lines. B) Diagram showing interactions in the docked model of glycine against GPR158 Cache domain. Hydrogen bonds are shown as dashed lines, van der Waals interactions are shown as intersecting semicircles, and the secondary structural context of Ser266 and Tyr269 is shown as an arc. Dagger indicates a residue implicated in glycine binding in 11A. C) Radioligand binding assay of ^3H-glycine in cells expressing GPR158 mutants. Data shown mean±s.e.m. of 3 independent experiments, *p<0.05, ns=p>0.05 one-way ANOVA. D) Functional evaluation of GPR158 mutants in GAP BRET assay. Error bars are mean±s.e.m. of 3 independent experiments in triplicate. *p<0.05, **p<0.01, ***p<0.001, ****p<0.0001, ns=p>0.05, two-way ANOVA Columns with no fill (Ctrl), columns with angled-line fill (Glycine) E) Quantification of glycine inhibitory effect on kGAP normalized to the effect seen with WT receptor. […]
Whole cell binding was performed using cDNA of GPR158-venus or each GPR158-venus mutant or empty pcDNA3.1+ for ctrl cells. […] Finally radioactivity was measured using the liquid scintillation analyzer Tri-Carb 4910 TR.

With `NCC(=O)O` [^3H-glycine, [^3H]-glycine], the “[^3H]-glycine binding” value is recorded as “near complete loss”.
